US20040097529A1, “Novel use of arylethene sulfonamide derivative” (priority 2001, published 2004)
Where a name gives a salt, the structure may show the parent alone. Read-outs that look alike come from different tables or passages of the source. Bridge positions count the residues as written; N and C are the ends. Ends that are not written are not given here.

Key:
[1] = system: chronic renal failure (5/6Nx) rats; conditions: for Systolic blood pressure: tail-cuff
Procedure: Male Wistar rats of 8 weeks of age were used in the experiment. A Rat was anesthetized with petobarbital and ⅔ of the left kidney was cut off, and one week after the right kidney was removed completely. Two weeks after the ⅚ nephrectomy, systolic blood pressure (SBP) was measured by a tail-cuff method, and the urine was collected in a metabolic cage for 24 hours to measure the urinary protein excretion. Rats were divided into 3 groups (each group: n=9) so that no difference occurred between the respective groups. Thereafter, a solvent (0.5% MC) was orally administered to the ⅚Nx-Cont. group at a dose of 5 ml/kg over 8 weeks. […] Similarly, to the ⅚Nx-Ena. group was administered 10 mg/kg/day of enalapril maleate dissolved in a solvent (0.5% MC). On the other hand, the solvent (0.5% MC) alone was orally administered to the abdominal-sectioned rats as a control group (Sham). Every 2 weeks, the urine was collected for 24 hours to measure the urinary protein excretion. Additionally, every 4 weeks, SBP was measured to examine the effect on the blood pressure.
(§1) The results were indicated by the mean±error. In comparison between the Sham group and the ⅚Nx-Cont. group, a t-test was made without correspondence, and when the significant level is less than 5%, it is considered as a significant difference. In comparison between the ⅚Nx rat-drug groups, multiple comparison (Dunnett's test) was made respectively without correspondence following the variance analysis of one-way classification. When the significant level is less than 5%, it is considered as a significant difference.

[2] = system: diabetic rats induced by streptozotocin (STZ); assay: Effect on the blood parameter and urinary parameter in diabetic rats induced by streptozotocin (STZ); format: in vivo, Wistar (Crj) rats; conditions: for Blood glucose level: enalapril maleate 10 mg/kg p.o. once a day
Procedure: Wistar (Crj) rats of 9 weeks of age were divided into 5 groups so that there was no bias in urinary albumin excretion. To the 4 groups of the rats was administered intravenously STZ (50 mg/kg). […] After the lapse of 2, 4 and 6 weeks from the start of administration, urine was collected for 24 hours in a metabolic cage to measure a urinary parameter. The blood was collected from the tail vein after 2 and 4 weeks and from the abdominal aorta under anesthesia after 6 weeks to measure a blood parameter.
as §1, with “STZ-Cont.” for “⅚Nx-Cont.”, “STZ-dose groups of rats,” for “⅚Nx rat-drug groups,”

[3] = system: STZ-induced diabetic rats; conditions: cited from earlier work
[4] = system: rat's cultured mesangial cells; assay: Effect of ET on the growth and hypertrophy of rat's cultured mesangial cells; format: cell-based; conditions: for growth and hypertrophy of rat's cultured mesangial cells: depending on the concentration of 10^−12 to 10^−7M; for concentration of the maximum reaction (growth and hypertrophy): rat's cultured mesangial cells
Procedure: In measurement of the hypertrophy activity, the cells used in the measurement of the cell growth activity using an Alamar Blue reagent were washed 3 times with a phosphate buffer, to which cells was added a direct protein-determining reagent (BioRad) to measure the absorbance at 595 nm. The protein content was calculated from the analytical curve. The protein content per the unit cell number was given as the hypertrophy activity from the cell number obtained by measurement of the growth activity.
The results were indicated by the mean±error.

[5] = 5/6Nx rats, enalapril maleate 10 mg/kg/day p.o., 0 week
[6] = 5/6Nx rats, enalapril maleate 10 mg/kg/day p.o., 4 weeks
[7] = 5/6Nx rats, enalapril maleate 10 mg/kg/day p.o., 8 weeks
[8] = enalapril maleate 10 mg/kg p.o.
[9] = enalapril maleate 10 mg/kg p.o., 4 weeks
[10] = continuously injected intraperitoneally

For `COc1ccccc1Oc1c(NS(=O)(=O)C=Cc2ccccc2)nc(-c2ncccn2)nc1OC` [Compound 1, N-[6-Methoxy-5-(2-methoxyphenoxy)-2-(pyrimidin-2-yl)pyrimidin-4-yl]-2-phenylethenesulfonamide], the “death cases (mortality in renal dysfunction cases)” value (shortened to “death cases”) ([1]; rat, in vivo, po, 1 mg/kg/day) was “no death was observed”.
In the case of `CCOC(=O)[C@H](CCc1ccccc1)N[C@@H](C)C(=O)N1CCC[C@H]1C(=O)O` [Ena., enalapril maleate], the “hypotensive effect (SBP)” value ([1]; 5/6Nx rats, enalapril maleate 10 mg/kg/day p.o.) is reported as “a hypotensive effect was markedly recognized”, the Urinary protein excretion [1, 5] is reported as 36.9 ± 4.7 mg/day and the Systolic blood pressure [1, 5] is reported as 136 ± 4 mmHg. It also gave a Urinary protein excretion ([1]; 5/6Nx rats, enalapril maleate 10 mg/kg/day p.o., 2 weeks) of 45.5 ± 10.5 mg/day, a Urinary protein excretion [1, 6] of 78.4 ± 15.3 mg/day and a Systolic blood pressure [1, 6] of 129 ± 8 mmHg. For the same molecule, the Urinary protein excretion ([1]; 5/6Nx rats, enalapril maleate 10 mg/kg/day p.o., 6 weeks) was 165.1 ± 28.1 mg/day, the Urinary protein excretion [1, 7] was 261.2 ± 43.2 mg/day and the Systolic blood pressure [1, 7] was 124 ± 6 mmHg. For the same molecule, the “death cases” value ([1]; 5/6Nx rats, enalapril maleate 10 mg/kg/day p.o., 9 cases per group) was 2, the “death cases” value ([1]; 5/6Nx rats, enalapril maleate 10 mg/kg/day p.o., 9 cases per group, listed as enalapril) was “two death cases” and the “inhibition of elevation of creatinine clearance (Ccr)” value [2, 8] was “there was no tendency that elevation of Ccr was inhibited”. The “urinary albumin excretion (UAE) change” value [2, 8] was “no UAE reduction was observed”, the Blood glucose level ([2]; 2 weeks) was 403.0 ± 13.0 mg/dL and the Blood glucose level ([2]; 4 weeks) was 393.2 ± 17.6 mg/dL. For the same molecule, the Blood glucose level ([2]; 6 weeks) was 394.3 ± 9.6 mg/dL, the Urinary albumin excretion ([2]; enalapril maleate 10 mg/kg p.o., 0 week) was 0.46 ± 0.04 mg/day and the Urinary albumin excretion ([2]; enalapril maleate 10 mg/kg p.o., 2 weeks) was 0.91 ± 0.13 mg/day. For the same molecule, the Blood cholesterol level [2, 9] was 148.8 ± 11.2 mg/dL, the Urinary albumin excretion [2, 9] was 0.65 ± 0.14 mg/day and the blood triglyceride level [2, 9] was 407.0 ± 35.7 mg/dL. For the same molecule, the Urinary albumin excretion ([2]; enalapril maleate 10 mg/kg p.o., 6 weeks) was 1.27 ± 0.18 mg/day.
In the case of `COc1ccccc1Oc1c(NS(=O)(=O)c2ccc(C(C)(C)C)cc2)nc(-c2ncccn2)nc1OCCO` [bosentan], the plasma glucose level [3] is listed as “do not change the plasma glucose level”.
In the case of `COc1cc(OC)nc(O[C@H](C(=O)O)C(OC)(c2ccccc2)c2ccccc2)n1` [darusentan], the blood triglyceride level ([3]; 100 mg/kg, p.o., decreased only in comparison with control group) is given as “decreases the blood triglyceride level”, the Blood glucose level ([3]; 100 mg/kg, p.o.) is given as “does not change the blood glucose level” and the microalbuminuria ([3]; 100 mg/kg/day for 160 days) is given as “has a tendency to reduce microalbuminuria”.
In the case of “ET-1: Endothelin iso-peptide, endogenous physiologically active peptide consisting of 21 amino acids (CSCSSLMDKECVYFCHLDIIW; disulfide 1-15, 3-11; ends not checked; UniProt P05305 53-73, looked up)”, the “growth and hypertrophy of rat's cultured mesangial cells” value [4] is reported as “promoted the growth and hypertrophy” and the “concentration of the maximum reaction (growth and hypertrophy)” value [4] is reported as 10^−8 M.
In the case of “ET-3: Endothelin iso-peptide, endogenous physiologically active peptide consisting of 21 amino acids (CTCFTYKDKECVYYCHLDIIW; disulfide 1-15, 3-11; ends not checked; UniProt P14138 97-117, looked up)”, the “growth and hypertrophy of rat's cultured mesangial cells” value [4] is reported as “promoted the growth and hypertrophy” and the “concentration of the maximum reaction (growth and hypertrophy)” value [4] is reported as 10^−8 M.
For FR139317, the plasma glucose level [3] is given as “do not change the plasma glucose level”, the excretion of microalbuminuria [3, 10] is given as “reduces excretion of microalbuminuria” and the “gene expression of the extracellular matrix of the glomerulus” value [3, 10] is given as “inhibits gene expression of the extracellular matrix of the glomerulus”.
